Reference: US11357752B2, “Carolacton and derivatives thereof for use in the treatment of cell proliferation disorders” (Helmholtz-Zentrum für Infektionsforschung GmbH, priority 2017, dated 2022)
“And” between values parts separate entries of the source, which are not always exact repeats. Equal values may be shown once.

Key:
ecFoID = target: T1, ecFoID (Escherichia coli, UniProt P24186); test: FoID cyclohydrolase (CYH) enzyme assay; type: biochemical, E. coli
T1 construct: His-tag (vector pHis-TEV); made in house; host or cells: E. coli BL21 (DE3)
Description: (§1) (6R,S)-5,10-Methylene-5,6,7,8-tetrahydrofolic acid ((6R,S)-5,10-CH2-THF), calcium salt and (6R,S)-5,10-Methenyl-5,6,7,8-tetrahydrofolic acid ((6R,S)-5,10-CH=THF) chloride were purchased from Schircks Laboratories (Bauma, Switzerland) and were used as substrates for FoID dehydrogenase and cyclohydrolase enzyme assays, respectively. Only the R-isomer, which accounts for 50% of (6R,S)-5,10-CH2-THF and (6R,S)-5,10-CH=THF, respectively, is used by the enzyme. (6R,S)-5,10-CH2-THF was dissolved in N2-spargeled basic buffer (50 mM Tris-HCl (pH 8.0), 100 mM β-mercaptoethanol) as described by Sah and Varshney, 2015a (6R,S)-5,10-CH=THF was first dissolved in DMSO as a 100 mM stock solution.
Because FoID is a bifunctional enzyme, dehydrogenase and cyclohydrolase activities were determined for FoID enzyme kinetics, respectively. The dehydrogenase activity of FoID was assayed for its substrate 5,10-CH2-THF and cofactor NADP+ (in the case of MTHFD2, NAD+ was used as cofactor) based on monitoring the formation of 5,10-CH=THF while the cyclohydrolase activity of FoID was determined for its substrate 5,10-CH=THF by monitoring the hydrolysis of 5,10-CH2-THF. The enzyme kinetics for the dehydrogenase activity of all FoIDs except hsMTHFD1_DC were determined at 30° C. in 50 mM Tris-HCl (pH 7.5), 30 mM β-mercaptoethanol. […]

spFoID = target: T2, spFoID (Streptococcus pneumoniae serotype 4, UniProt Q97RI9); test: FoID cyclohydrolase (CYH) enzyme assay; type: biochemical, S. pneumoniae
T2 construct: made in house; host or cells: E. coli BL21 (DE3)
Description: as §1
Because FoID is a bifunctional enzyme, dehydrogenase and cyclohydrolase activities were determined for FoID enzyme kinetics, respectively. The dehydrogenase activity of FoID was assayed for its substrate 5,10-CH2-THF and cofactor NADP+ (in the case of MTHFD2, NAD+ was used as cofactor) based on monitoring the formation of 5,10-CH=THF while the cyclohydrolase activity of FoID was determined for its substrate 5,10-CH=THF by monitoring the hydrolysis of 5,10-CH2-THF. The enzyme kinetics for the dehydrogenase activity of all FoIDs except hsMTHFD1_DC were determined at 30° C. in 50 mM Tris-HCl (pH 7.5), 30 mM β-mercaptoethanol. The hsMTHFD1_DC dehydrogenase activity was measured in 25 mM MOPS (pH 7.3), 30 mM β-mercaptoethanol at 30° C. […] To monitor the formation of 5,10-CH=THF, the absorbance of the reaction mixture was monitored at 350 nm in micro UV cuvettes (BRAND, Essex, Connecticut, USA). The concentration of 5,10-CH=THF produced in the reaction was determined using an extinction co-efficient of 0.0249 μM-1 cm-1. […] The consumption of 5,10-CH=THF was measured by recording the absorbance of the reactions at 355 nm using the TECAN Infinite 200 PRO equipped with a monochromator. […] The inhibition constants (Ki) of carolacton on FoID were determined by measuring the apparent Km values when adding certain amounts of carolacton to the enzyme reactions. […]

T2 sequence (Q97RI9 whole entry): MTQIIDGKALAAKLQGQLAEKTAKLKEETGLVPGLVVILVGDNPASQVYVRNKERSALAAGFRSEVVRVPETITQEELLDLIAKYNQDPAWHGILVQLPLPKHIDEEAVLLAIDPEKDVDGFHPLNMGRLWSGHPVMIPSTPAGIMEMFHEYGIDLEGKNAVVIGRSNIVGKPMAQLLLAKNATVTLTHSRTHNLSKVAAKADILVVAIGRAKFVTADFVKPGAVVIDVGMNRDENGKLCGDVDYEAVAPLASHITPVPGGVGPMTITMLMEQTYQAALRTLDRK

In the case of CO[C@H](CC(=O)O)[C@@H](C)C(=O)[C@H](C)/C=C(\C)[C@H]1OC(=O)[C@H](O)[C@H](O)/C=C/[C@H](C)CCC[C@@H]1C [Carolacton, carolacton], the IC50 (ecFoID) is reported as 49.8 nM, the Ki (ecFoID; Ki (5,10-CH═THF), carolacton inhibition on CYH activity, ecFoID, vs 5,10-CH=THF) is reported as 32 nM and 31.6 nM and the IC50 (spFoID; 5 nM enzyme, read-out: IC50, carolacton inhibition on CYH activity) is reported as 38.1 nM. The IC80 (spFoID; 5 nM enzyme, read-out: IC80, carolacton inhibition on CYH activity) was 101 nM and the Ki (spFoID; vs 5,10-CH=THF, read-out: Ki (5,10-CH═THF), carolacton inhibition on CYH activity) was 38.1 nM.
